From PMC12155096 (International Journal of Molecular Sciences, 2025)
Where a name gives a salt, the structure may show the parent alone. Read-outs that look alike come from different tables or passages of the source.

How the values were obtained:
[1] = target: Photinus pyralis (firefly) luciferase (Photinus pyralis, UniProt P08659); assay: biochemical; format: biochemical
human CYP2C9 [2] = target: T1, human CYP2C9 (Homo sapiens, UniProt P11712); assay: biochemical; conditions: for AC50: CYP2C9 AC50 (half-maximal activity concentration)
T1 sequence (P11712 whole entry): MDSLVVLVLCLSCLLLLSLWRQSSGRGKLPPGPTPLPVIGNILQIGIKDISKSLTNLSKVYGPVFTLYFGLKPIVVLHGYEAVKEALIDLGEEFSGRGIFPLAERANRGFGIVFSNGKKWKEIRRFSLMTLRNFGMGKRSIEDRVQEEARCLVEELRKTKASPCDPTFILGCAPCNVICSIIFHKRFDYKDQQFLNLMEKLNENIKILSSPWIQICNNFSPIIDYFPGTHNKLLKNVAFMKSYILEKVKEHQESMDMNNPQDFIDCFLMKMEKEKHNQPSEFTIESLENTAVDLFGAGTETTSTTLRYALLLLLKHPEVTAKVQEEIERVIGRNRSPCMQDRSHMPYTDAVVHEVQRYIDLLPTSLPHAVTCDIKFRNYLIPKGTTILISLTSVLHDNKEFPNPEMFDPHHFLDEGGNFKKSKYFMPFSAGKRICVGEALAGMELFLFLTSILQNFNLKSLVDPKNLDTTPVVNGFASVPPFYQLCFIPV

human CYP2C19 [3] = target: T2, human CYP2C19 (Homo sapiens, UniProt P33261); assay: biochemical; conditions: for AC50: CYP2C19 AC50 (half-maximal activity concentration)
T2 sequence (P33261 whole entry): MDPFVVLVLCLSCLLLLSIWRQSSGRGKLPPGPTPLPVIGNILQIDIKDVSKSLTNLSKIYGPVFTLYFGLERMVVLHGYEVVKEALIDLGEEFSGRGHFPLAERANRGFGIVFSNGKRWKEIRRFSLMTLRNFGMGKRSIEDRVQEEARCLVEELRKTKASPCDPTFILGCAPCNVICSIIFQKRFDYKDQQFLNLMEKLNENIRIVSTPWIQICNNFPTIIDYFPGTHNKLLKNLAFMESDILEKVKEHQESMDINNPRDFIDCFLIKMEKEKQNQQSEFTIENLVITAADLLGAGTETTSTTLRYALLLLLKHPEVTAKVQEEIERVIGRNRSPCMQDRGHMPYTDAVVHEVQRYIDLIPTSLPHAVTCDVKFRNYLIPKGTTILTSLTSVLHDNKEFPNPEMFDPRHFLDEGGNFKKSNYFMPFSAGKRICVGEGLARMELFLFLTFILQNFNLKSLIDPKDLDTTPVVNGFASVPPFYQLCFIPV

CYP3A4 [4] = target: T3, CYP3A4 (Homo sapiens, UniProt P08684)
T3 sequence (P08684 whole entry): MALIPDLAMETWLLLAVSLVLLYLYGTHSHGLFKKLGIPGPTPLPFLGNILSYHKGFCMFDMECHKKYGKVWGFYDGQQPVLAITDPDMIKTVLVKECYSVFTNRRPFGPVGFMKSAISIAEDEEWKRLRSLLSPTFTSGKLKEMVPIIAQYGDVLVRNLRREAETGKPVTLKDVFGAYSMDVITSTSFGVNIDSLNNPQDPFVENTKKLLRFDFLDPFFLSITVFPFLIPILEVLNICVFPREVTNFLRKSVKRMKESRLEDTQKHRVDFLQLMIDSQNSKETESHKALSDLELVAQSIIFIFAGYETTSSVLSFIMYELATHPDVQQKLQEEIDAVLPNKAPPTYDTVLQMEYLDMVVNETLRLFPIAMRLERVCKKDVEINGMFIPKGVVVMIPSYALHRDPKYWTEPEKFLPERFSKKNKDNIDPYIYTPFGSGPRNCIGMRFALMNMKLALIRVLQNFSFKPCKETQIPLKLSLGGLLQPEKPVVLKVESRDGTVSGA

human CYP1A2 [5] = target: T4, human CYP1A2 (Homo sapiens, UniProt P05177); assay: biochemical; conditions: for AC50: CYP1A2 AC50 (half-maximal activity concentration)
T4 sequence (P05177 1-516): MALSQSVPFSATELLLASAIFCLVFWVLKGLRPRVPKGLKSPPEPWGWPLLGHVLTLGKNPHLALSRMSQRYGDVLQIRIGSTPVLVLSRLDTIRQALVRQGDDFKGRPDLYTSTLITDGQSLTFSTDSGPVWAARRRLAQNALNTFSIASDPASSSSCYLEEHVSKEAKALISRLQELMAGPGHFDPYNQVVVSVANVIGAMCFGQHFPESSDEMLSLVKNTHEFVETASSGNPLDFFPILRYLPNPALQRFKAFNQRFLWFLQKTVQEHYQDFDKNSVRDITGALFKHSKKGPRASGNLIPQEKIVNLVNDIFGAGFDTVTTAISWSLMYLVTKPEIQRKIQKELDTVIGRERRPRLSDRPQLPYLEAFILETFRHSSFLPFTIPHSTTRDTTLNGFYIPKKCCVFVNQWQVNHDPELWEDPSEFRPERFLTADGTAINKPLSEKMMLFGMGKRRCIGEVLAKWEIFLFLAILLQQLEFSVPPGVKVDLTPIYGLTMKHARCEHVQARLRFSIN

CYP3A4 [6] = target: T3, CYP3A4; assay: biochemical; conditions: for AC50: CYP3A4 AC50 (half-maximal activity concentration)
human CYP2D6 [7] = target: T5, human CYP2D6 (Homo sapiens, UniProt P10635); assay: biochemical; conditions: for AC50: CYP2D6 AC50 (half-maximal activity concentration)
T5 sequence (P10635 whole entry): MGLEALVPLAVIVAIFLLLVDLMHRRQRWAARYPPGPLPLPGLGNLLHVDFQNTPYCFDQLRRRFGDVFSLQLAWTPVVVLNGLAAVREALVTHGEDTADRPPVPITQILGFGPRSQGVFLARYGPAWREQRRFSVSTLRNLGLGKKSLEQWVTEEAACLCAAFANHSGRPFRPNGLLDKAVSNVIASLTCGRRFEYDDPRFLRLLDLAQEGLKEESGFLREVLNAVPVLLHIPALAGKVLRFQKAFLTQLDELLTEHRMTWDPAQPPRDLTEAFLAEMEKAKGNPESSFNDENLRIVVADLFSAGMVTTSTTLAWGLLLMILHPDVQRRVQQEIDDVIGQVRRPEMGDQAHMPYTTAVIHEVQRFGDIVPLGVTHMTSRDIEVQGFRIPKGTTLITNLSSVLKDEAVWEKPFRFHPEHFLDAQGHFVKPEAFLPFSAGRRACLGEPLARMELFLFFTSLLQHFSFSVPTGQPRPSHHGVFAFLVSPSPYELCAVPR

human CYP2C9 [8] = target: T1, human CYP2C9
human CYP1A2 [9] = target: T4, human CYP1A2
human CYP2C19 [10] = target: T2, human CYP2C19
human CYP2D6 [11] = target: T5, human CYP2D6; conditions: human; for CYP2D6 Efficacy: 1 h
[12] = CYP2C9 IC50 (half-maximal inhibitory concentration)
[13] = CYP2C19 IC50 (half-maximal inhibitory concentration)
[14] = CYP1A2 IC50 (half-maximal inhibitory concentration)
[15] = CYP2D6 IC50 (half-maximal inhibitory concentration)
[16] = CYP3A4 IC50 (half-maximal inhibitory concentration)

Chain of Photinus pyralis (firefly) luciferase (P08659 whole entry): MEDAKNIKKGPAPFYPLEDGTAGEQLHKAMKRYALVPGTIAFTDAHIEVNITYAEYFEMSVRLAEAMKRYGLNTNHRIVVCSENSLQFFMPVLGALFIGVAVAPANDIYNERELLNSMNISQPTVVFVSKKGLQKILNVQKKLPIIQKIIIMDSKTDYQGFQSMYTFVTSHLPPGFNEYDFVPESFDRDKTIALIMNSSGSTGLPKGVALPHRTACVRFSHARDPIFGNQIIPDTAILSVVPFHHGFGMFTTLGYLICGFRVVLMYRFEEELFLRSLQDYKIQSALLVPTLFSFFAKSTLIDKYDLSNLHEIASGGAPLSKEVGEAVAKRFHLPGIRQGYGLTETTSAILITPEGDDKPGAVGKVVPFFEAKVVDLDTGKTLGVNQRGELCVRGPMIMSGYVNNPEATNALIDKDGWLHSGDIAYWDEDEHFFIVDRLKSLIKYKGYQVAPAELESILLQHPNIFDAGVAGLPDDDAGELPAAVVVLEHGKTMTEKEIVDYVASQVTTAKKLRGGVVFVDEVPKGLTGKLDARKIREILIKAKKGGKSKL

Cc1ccc2c(c1N)C(=O)c1ccccc1C2=O [1-Amino-2-methylanthraquinone]
IC50 [1]: 5.87 µM
AC50 (human CYP2C9 [2]): 3.36 µM
IC50 (human CYP2C9 [2]; [12]): 3.36 µM
AC50 (human CYP2C19 [3]): 5660 nM
IC50 (human CYP2C19 [3]; [13]): 5.66 µM
CYP3A4 IC50 (half-maximal inhibitory concentration) (CYP3A4 [4]): 0.32 ± 0.14 (91 ± 19) µM
AC50 (human CYP1A2 [5]): 0.58 µM
IC50 (human CYP1A2 [5]; [14]): 0.58 µM
AC50 (CYP3A4 [6]): 320 nM
AC50 (human CYP2D6 [7]): 5.59 µM
IC50 (human CYP2D6 [7]; [15]): 5.59 µM

C=CCOc1cc(Cl)ccc1C(=O)NCCN(CC)CC [Alloclamide]
Luciferase IC50 (half-maximal inhibitory concentration) [1]: Inactive
CYP2C9 IC50 (half-maximal inhibitory concentration) (human CYP2C9 [8]): Inactive
IC50 (human CYP2C19 [3]): 26.8 µM
IC50 (human CYP1A2 [5]): 3.34 µM
IC50 (CYP3A4 [6]): 16800 nM
IC50 (human CYP2D6 [7]): 0.28 µM

CN(C)c1ccc(C(=N)c2ccc(N(C)C)cc2)cc1 [Auramine hydrochloride]
Luciferase IC50 (half-maximal inhibitory concentration) [1]: Inactive
CYP2C9 IC50 (half-maximal inhibitory concentration) (human CYP2C9 [8]): Inactive
IC50 (human CYP2C19 [3]; [13]): 21 µM
IC50 (human CYP1A2 [5]; [14]): 25.3 µM
IC50 (CYP3A4 [6]; [16]): 39300 nM
IC50 (human CYP2D6 [7]; [15]): 0.08 µM

CC(O)(c1ccc(Cl)cc1)c1ccc(Cl)cc1 [Chlorfenethol]
Luciferase IC50 (half-maximal inhibitory concentration) [1]: Inactive
AC50 (human CYP2C9 [2]): 7.68 µM
IC50 (human CYP2C9 [2]; [12]): 7.68 µM
AC50 (human CYP2C19 [3]): 120 nM
IC50 (human CYP2C19 [3]; [13]): 0.12 µM
CYP3A4 IC50 (half-maximal inhibitory concentration) (CYP3A4 [4]): 11.76 ± 1.5 (55 ± 6) µM
AC50 (human CYP1A2 [5]): 30.6 µM
IC50 (human CYP1A2 [5]; [14]): 30.6 µM
AC50 (CYP3A4 [6]): 11800 nM
AC50 (human CYP2D6 [7]): 55.5 µM
IC50 (human CYP2D6 [7]; [15]): 55.5 µM

CCOP(=O)(OCC)OC(=CCl)c1ccc(Cl)cc1Cl [Chlorfenvinphos]
Luciferase IC50 (half-maximal inhibitory concentration) [1]: Inactive
IC50 (human CYP2C9 [2]): 31.9 µM
AC50 (human CYP2C9 [2]): 31.9 µM
AC50 (human CYP2C19 [3]): 830 nM
IC50 (human CYP2C19 [3]; [13]): 0.83 µM
IC50 (human CYP2C19 [3]; IC50 CYP2C19 assay): 0.77 µM
CYP3A4 IC50 (half-maximal inhibitory concentration) (CYP3A4 [4]): 1.18 ± 0.21 (70 ± 1) µM
AC50 (human CYP1A2 [5]): 6.58 µM
IC50 (human CYP1A2 [5]; [14]): 6.58 µM
AC50 (CYP3A4 [6]): 1180 nM
IC50 (human CYP2D6 [7]): 37 µM
AC50 (human CYP2D6 [7]): 37 µM

CN1CCc2cc(Cl)c(O)cc2[C@H]2c3ccccc3CC[C@@H]21 [Ecopipam]
Luciferase IC50 [1]: Inactive
CYP1A2 IC50 (human CYP1A2 [9]): Inactive
CYP2C9 IC50 (human CYP2C9 [8]): Inactive
CYP3A4 IC50 (CYP3A4 [4]): 1.89 ± 0.26 (95 ± 11) µM
CYP2C19 IC50 (human CYP2C19 [10]): Inactive
AC50 (CYP3A4 [6]): 1890 nM
AC50 (human CYP2D6 [7]): 0.01 µM
IC50 (human CYP2D6 [7]; CYP2D6 IC50): 0.01 µM

CC(CCc1ccccc1)NCC(O)c1ccc(O)c(C(N)=O)c1 (stereo not shown) [Labetalol hydrochloride]
Luciferase IC50 (half-maximal inhibitory concentration) [1]: Inactive
CYP1A2 IC50 (half-maximal inhibitory concentration) (human CYP1A2 [9]): Inactive
CYP2C9 IC50 (half-maximal inhibitory concentration) (human CYP2C9 [8]): Inactive
CYP3A4 IC50 (half-maximal inhibitory concentration) (CYP3A4 [4]): 34.77 ± 1.39 (96 ± 9) µM
AC50 (CYP3A4 [6]): 34800 nM
AC50 (human CYP2D6 [7]): 0.62 µM
IC50 (human CYP2D6 [7]; [15]): 0.62 µM

CCCCC(CC)CN1C(=O)C2C3C=CC(C3)C2C1=O (stereo not shown) [MGK-264]
Luciferase IC50 [1]: Inactive
IC50 (human CYP2C9 [2]): 10.1 µM
IC50 (human CYP2C19 [3]): 4.9 µM
CYP2D6 Efficacy (human CYP2D6 [11]): 31.36 ± 8.74 (-86 ± 27) %
IC50 (human CYP1A2 [5]): 18.6 µM
IC50 (CYP3A4 [6]): 860 nM
IC50 (human CYP2D6 [7]): 31.4 µM

CC1(C)CCC(Cc2ccc(Cl)cc2)C1(O)Cn1cncn1 (stereo not shown) [Metconazole]
Luciferase IC50 (half-maximal inhibitory concentration) [1]: Inactive
IC50 (human CYP2C9 [2]; [12]): 0.23 µM
CYP2C9 Efficacy (in parenthesis) (human CYP2C9 [8]; human): 0.23 ± 0.11 (-96 ± 19) %
IC50 (human CYP2C19 [3]; [13]): 0.17 µM
CYP3A4 Efficacy (in parenthesis) (CYP3A4 [4]): 0.06 ± 0.04 (-85 ± 6) %
CYP2D6 Efficacy (in parenthesis) (human CYP2D6 [11]): 41.91 ± 7.54 (-75 ± 4) %
CYP2C19 Efficacy (in parenthesis) (human CYP2C19 [10]; human): 0.17 ± 0.05 (-148 ± 4) %
IC50 (CYP3A4 [6]; [16]): 60 nM
IC50 (human CYP2D6 [7]; [15]): 41.9 µM

COc1ccc(S(=O)(=O)N2C(=O)[C@@](c3ccccc3OC)(N3C[C@H](O)C[C@H]3C(=O)N(C)C)c3cc(Cl)ccc32)c(OC)c1 [Nelivaptan]
Luciferase IC50 (half-maximal inhibitory concentration) [1]: Inactive
IC50 (human CYP2C9 [2]): 44.5 ± 24.6 µM
IC50 (human CYP2C19 [3]): 27.6 ± 19.5 µM
CYP2D6 Efficacy (human CYP2D6 [11]): 55.12 ± 29.45 (-53 ± 5) %
IC50 (human CYP1A2 [5]): 53.3 ± 25 µM
IC50 (CYP3A4 [6]): 70 ± 20 nM
IC50 (human CYP2D6 [7]): 55.1 ± 29.4 µM

O=c1[nH]c2ccccc2n1CCCN1CCN(C(c2ccccc2)c2ccccc2)CC1 [Oxatomide]
Luciferase IC50 [1]: Inactive
CYP1A2 IC50 (human CYP1A2 [9]): Inactive
AC50 (human CYP2C9 [2]): 25.3 µM
IC50 (human CYP2C9 [2]; CYP2C9 IC50): 25.3 µM
IC50 (human CYP2C19 [3]; CYP2C19 IC50): 33.2 µM
CYP3A4 IC50 (CYP3A4 [4]): 1.39 ± 0.16 (164 ± 14) µM
CYP2C19 AC50 (half-maximal activity concentration) (human CYP2C19 [10]): Inconclusive inhibitor
AC50 (CYP3A4 [6]): 1390 nM
AC50 (human CYP2D6 [7]): 0.62 µM
IC50 (human CYP2D6 [7]; CYP2D6 IC50): 0.62 µM
